Data taken from US20220290111A1, “NUCLEIC ACIDS, PROTEINS AND PROCESSES FOR PRODUCING AMIDES” (Leibniz-Institut für Pflanzenbiochemie, priority 2019, published 2022).

Assays:
Assay type in all cases: biochemical, Piper nigrum
[1] = system: PipSyn1; test: in vitro enzyme assay of amide formation from CoA-ester and amine, PipSyn1; conditions: 100% = 2 nkat/mg PipSyn2 with piperoyl-CoA and piperidine, quantification by mass detection; for relative activity, hexanoyl-CoA: CoA-ester hexanoyl-CoA; for relative activity, myristoyl-CoA: CoA-ester myristoyl-CoA
[2] = system: recombinant PipSyn2; test: in vitro enzyme assay of amide formation from CoA-ester and amine, PipSyn2; conditions: for relative activity, 3,4-methylenedioxycinnamoyl-CoA / relative activity, hexanoyl-CoA / relative activity, myristoyl-CoA / relative activity, piperoyl-CoA: PipSyn2; for relative activity, 3,4-methylenedioxycinnamoyl-CoA: CoA-ester 3,4-methylenedioxycinnamoyl-CoA; for relative activity, 3,4-methylenedioxycinnamoyl-CoA / relative activity, hexanoyl-CoA / relative activity, myristoyl-CoA: 100% = 2 nkat/mg PipSyn2 with piperoyl-CoA and piperidine; for relative activity, 3,4-methylenedioxycinnamoyl-CoA / relative activity, piperoyl-CoA: UV quantification; for relative activity, hexanoyl-CoA: CoA-ester hexanoyl-CoA; for relative activity, hexanoyl-CoA / relative activity, myristoyl-CoA: quantification by mass detection; for relative activity, myristoyl-CoA: CoA-ester myristoyl-CoA; for relative activity, piperoyl-CoA: CoA-ester piperoyl-CoA, 100% = 2 nkat/mg PipSyn2 with piperidine, assay as Example 3
Protocol: Enzyme activity test with regard to piperine formation in case of PipSynthase 2.
(§1) A standard enzyme assay contains:
(§2) 10 μl enzyme solution in 30 mM Tris/HCl buffer pH 8.0 (10% glycerol, 1 mM DTT)
(§3) 1 μg-5 μg protein, amount determined according to Bradford
(§4) 10 μl piperidine, 100 mM (in water) 10 μl 5 mM DTT in water 10 μl piperoyl-CoA (PipCoA) 2.5 mM in 25% DMSO/75% water • All reagents (except PipCoA) were mixed in Eppendorf tubes and incubated in a standard (Eppendorf) incubator set at 30° C. Reagents were pre-equilibrated for 1 min to this temperature. • Assay start: addition of 10 μl PipCoA 2.5 mM in 25% DMSO/75% water to a final concentration of 500 μM PipCoA. • Assay stop after 5 min addition of 10 μl stop solution such as 1% formic acid/50% acetonitrile
(§5) Mix by vortex, incubate on ice for 5 minutes and centrifugation for 1 min at 20,000 g to precipitate any debris or insoluble material e.g. residual protein.
(§6) Remove 50 μl of supernatant for analysis of products (amides) by LC-MS. Injected to an RP-HPLC column are 10 μl (out of 50 μl). • Product formation is recorded via UV/PDA (photodiode array) detector and LC-MS and simultaneously. • Identification of piperine was achieved by use of a commercial standard and by LC-MS detection of calculated product masses at m/z 286 and UV-detection at 340 nm. • Quantification of product formation was achieved by a standard graph of piperine from 0.1-100 μM (commercial standard, Sigma) and recorded and calculated intensities of mass (peak area) and/or UV-peak area. • Identification and separation of piperine was according to a corresponding standard and a mass signal of m/z 286.1 in pos. mode and its corresponding absorbance at λmax-340 nm.
(§7) Quantification was performed based on a commercially available piperine standard. The peak area of the peak due to piperine in the LC trace was determined. Peaks due to possible isomerization products of piperine were neglected for the determination of enzyme activity of piperine formation. […] Before calculating enzyme activity in terms of nkat (nmole of piperine formed per second), the amount of non-enzymatically formed piperine is subtracted from the amount determined in the presence of protein.
(§8) Protein amounts were determined photometrically by the Bradford assay of combining a defined volume, preferentially 10 μl of the (partly) purified PipSyn1 and PipSyn2 enzyme and 990 μl of Bradford reagent, and calculating the resulting absorbance at λ=595 nm based on a standard curve made with a serial dilution of commercially available Bovine Serum Albumin fraction V in water.
(§9) This Example provides in Table 1 substrates which were tested for enzyme activity with both enzymes. Activity data were calculated from the UV-(PDA) area in the range of 320-370 nm. The data are supported by LC-MS measurements of corresponding m/z values recorded in positive ionization mode and based on calculated expected masses. Mass accuracy of Waters QDA-detector is +/−0.2 Dalton. Contrary to the procedure of Example 3, for the determination of the activity of the reaction of piperoyl-CoA and piperidine as substrates, the sum of all peaks in the LC trace due to species having calculated m/z values of the expected products was used for quantification of product, assuming the same ionization efficiency in positive ionization mode as in case of piperine for all molecule species.

[3] = system: PipSyn1; test: in vitro enzyme assay of amide formation from CoA-ester and amine, PipSyn1; conditions: 100% = 2 nkat/mg PipSyn2 with piperoyl-CoA and piperidine, UV quantification; for relative activity, 3,4-methylenedioxycinnamoyl-CoA: CoA-ester 3,4-methylenedioxycinnamoyl-CoA; for relative activity, benzoyl-CoA: CoA-ester benzoyl-CoA; for relative activity, piperoyl-CoA: CoA-ester piperoyl-CoA
Protocol: Standard assays are routine for a person of average skill in the art.
as §1, §2, §3, §4, §5, §6, §7, §8, §9

Molecule: C1CCNC1 [pyrrolidine]
- relative activity, hexanoyl-CoA [1]: 300%
- relative activity, myristoyl-CoA [1]: 3%
- relative activity, 3,4-methylenedioxycinnamoyl-CoA [2]: 3%
- relative activity, hexanoyl-CoA [2]: 60%
- relative activity, myristoyl-CoA [2]: <1%
- relative activity, piperoyl-CoA [2]: 34%
- relative activity, 3,4-methylenedioxycinnamoyl-CoA [3]: 186%
- relative activity, benzoyl-CoA [3]: 1%
- relative activity, piperoyl-CoA [3]: 77%

Molecule: NCCCCCCCN [1,7-diaminoheptane]
- relative activity, piperoyl-CoA [2]: 2%
- relative activity, 3,4-methylenedioxycinnamoyl-CoA [3]: 104%
- relative activity, benzoyl-CoA [3]: 2%
- relative activity, piperoyl-CoA [3]: 26%

Molecule: COc1cc(CN)ccc1O [vanillylamine]
- relative activity, hexanoyl-CoA [1]: 2%
- relative activity, hexanoyl-CoA [2]: <1%
- relative activity, 3,4-methylenedioxycinnamoyl-CoA [3]: 10%
- relative activity, piperoyl-CoA [3]: 2%

Molecule: CC(C)CN [isobutylamine]
- relative activity, myristoyl-CoA [1]: 20%
- relative activity, 3,4-methylenedioxycinnamoyl-CoA [2]: 2%
- relative activity, myristoyl-CoA [2]: 15%
- relative activity, piperoyl-CoA [2]: 16%
- relative activity, 3,4-methylenedioxycinnamoyl-CoA [3]: 173%
- relative activity, benzoyl-CoA [3]: 6%
- relative activity, piperoyl-CoA [3]: 66%

Molecule: NCCc1ccc(O)c(O)c1 [dopamine]
- relative activity, 3,4-methylenedioxycinnamoyl-CoA [3]: 7%
- relative activity, piperoyl-CoA [3]: 2%

Molecule: C1CCNCC1 [piperidine]
- relative activity, hexanoyl-CoA [1]: 23%
- relative activity, myristoyl-CoA [1]: 10%
- relative activity, 3,4-methylenedioxycinnamoyl-CoA [2]: 38%
- relative activity, hexanoyl-CoA [2]: 12%
- relative activity, myristoyl-CoA [2]: 10%
- relative activity, piperoyl-CoA [2]: 100%
- relative activity, 3,4-methylenedioxycinnamoyl-CoA [3]: 184%
- relative activity, benzoyl-CoA [3]: 7%
- relative activity, piperoyl-CoA [3]: 117%

Molecule: NCC1CCNCC1 [4-aminomethylpiperidine]
- relative activity, 3,4-methylenedioxycinnamoyl-CoA [2]: 7%
- relative activity, piperoyl-CoA [2]: 36%
- relative activity, 3,4-methylenedioxycinnamoyl-CoA [3]: 6%
- relative activity, piperoyl-CoA [3]: 17%

B1: PipSyn2: recombinant His-tagged piperine synthase from Piper nigrum, amino acid sequence SEQ ID NO: 4, expressed in E. coli (protein, listed as Piper nigrum)
chain: MAPSSQLEFNVVRKQPELLPPAEPTPFEWKELSDIDDQDGLRLHISGFFIYPPSTMSNVGRDNVARDIRLGLSKAMVFYYPLAGRIREGPNRKLSVECTGEGIMYCEADADVRLEQFGDIGALSMPFPFMDKVMFETVDDGILGTPLMYFQSTRFICGGIVIAGCYNHAIADGLGFYMFMAAAAQLARGAASPTPLPVWQRERLLSRVPPRVTFIHHEYIHDTPKTETANPLDNEPWPLHSIFFTRVDVAALRAQLPGHLRKSATSFEIISACLWRCRTAALRFAPDELSRLIIAVNARTKFGPPLPQGYYGNSIMLPMVVSEAGKLVLSGLGYAVELVIEAKGKVTEEYVKSVADYLVLNGRPHYVVTNTYLVSDLRQLVEMSKFDWGWGKPAYVGPADVGENAISFLATLKNGEEEGVVVPIRLPESAVGRFKSEVSKMVSFGCLEDVKPNRDGYLSRM
modifications: His tag
- catalytic activity taken as 100% ([2]; recombinant PipSyn2 with piperoyl-CoA and piperidine as substrates): 2 nkat/mg
